Six molecules from patent publication US8021570B2, “β-peptide lyotropic liquid crystals and methods of manufacture and use thereof” (Wisconsin Alumni Research Foundation, priority 2006, dated 2011) can be followed below.

Where only a bound is given, the exact number is not on record here.

The target in one series is T1, streptavidin (Streptomyces avidinii, UniProt P22629).
T1 construct: purchased Pierce Biotechnology
Description: Stability of streptavidin immobilized on gold slides after exposure to a liquid crystal (binding of fluorescently labeled biotin). Conditions: 2 hrs incubation.

Series [1] in a line: Optical microscopy of aqueous β-peptide solutions between crossed polarizing filters (birefringence = LC phase formation). Format: physicochemical. Particulars: aqueous solution. The text has this: The inventors used optical microscopy for initial evaluation of aqueous solutions of 1-5. For each β-peptide, aqueous solutions of varying concentration were drawn into microcapillaries and examined between crossed polarizing filters at room temperature (FIGS. 1 and 3). In such experiments, the observation of birefringence is taken as evidence of LC phase formation. […] Increasing β-peptide length by one triad, to generate 3, led to LC behavior at lower concentrations, as shown by the image obtained for a 10 wt % sample (61 mM, FIG. 1C). […] Thus, self-assembly of the chiral helix formed by 3 induced a helical ordering of molecules in the LC phase whereas the two-turn, chiral helix formed by 2 was unable to induce this higher ordered phase.
β-Peptides were weighed into glass vials, diluted to the desired concentration with water, and left on an oscillatory shaker overnight to ensure dissolution. β-peptide solutions were then drawn into a 2 μL microcapillary (Drummond), and the ends were sealed with a high viscosity vacuum grease (Dow-Corning) Microcapillaries were placed on a glass slide and imaged on an Olympus BX-60 microscope (Tokyo, Japan) in transmission mode between crossed polarizing filters using a digital camera (Olympus C2020 Zoom). […] Temperature was recorded from a thermostat but was not further calibrated.
Materials and Methods • Materials. […] Solvent A and Solvent B for RP-HPLC were 0.1% trifluoroacetic acid (TFA) in Millipore water and 0.1% TFA in acetonitrile, respectively. β-peptide purity was assessed using a Vydac C18 analytical column using a flow rate of 1 mL/min from 10-60% B over 50 minutes monitoring at 220 and 273 nm. • MALDI-TOF-MS (matrix-assisted laser desorption-ionization-time-of-flight mass spectrometry) data were collected on a Bruker REFLEX II spectrometer with a 337 nm laser using α-cyano-4-hydroxycinnamic acid as matrix. […] To assess the upper limit of concentration, a 1 μL droplet of a concentrated peptide solution was allowed to slowly evaporate while being monitored for birefringence. […]

T1 sequence (P22629 25-183): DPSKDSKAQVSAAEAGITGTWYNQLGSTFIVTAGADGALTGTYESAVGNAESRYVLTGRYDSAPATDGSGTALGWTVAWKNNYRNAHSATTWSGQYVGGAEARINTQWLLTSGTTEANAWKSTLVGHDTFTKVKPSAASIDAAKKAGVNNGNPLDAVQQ

Consider `O=C([O-])c1cc(=O)c2c(OCC(O)COc3cccc4oc(C(=O)[O-])cc(=O)c34)cccc2o1.[Na+].[Na+]` [disodium chromoglycate], for which the “state of immobilized streptavidin after incubation with the liquid crystal” value (“state of immobilized streptavidin” below) at streptavidin (16 wt %) is recorded as “streptavidin is still able to bind biotin”.

As for `CCCCCCCCCCOS(=O)(=O)[O-].[Na+]` [sodium decyl sulfate], the “state of immobilized streptavidin” value on streptavidin (32 wt %) is listed as “the protein is denatured”.

`NCCCC[C@@H](CC(N)=O)NC(=O)C[C@H](Cc1ccccc1)NC(=O)[C@H]1CCCC[C@@H]1NC(=O)C[C@H](CCCCN)NC(=O)C[C@H](Cc1ccccc1)NC(=O)[C@H]1CCCC[C@@H]1NC(=O)C[C@H](CCCCN)NC(=O)C[C@H](Cc1ccccc1)NC(=O)[C@H]1CCCC[C@@H]1NC(=O)C[C@@H](N)Cc1ccc(O)cc1` [β-peptide iso-A] gave a solubility limit in series [1] greater than 10 wt %.

As for “pentanoyl-NH-β^3hTyr-(ACHC-ACHC-β^3hLys)3 [pentanoyl-β^3hTyr-(ACHC-ACHC-β^3hLys)3]”, the “state of immobilized streptavidin” value at streptavidin (1 wt %) is listed as “streptavidin is still able to bind biotin”.

On to “β^3-hTyr-(ACHC-ACHC-β^3-hLys)2 [β-peptide 2]”, for which the “type of LC phase suggested by optical texture” value in series [1] (room temperature, 2 at 19 wt %, 3 at 10 wt %) is listed as “nematic”.

Turning to “β^3-hTyr-(ACHC-β^3-hPhe-β^3-hLys)3 scram”, in series [1], the “LC phase formation / birefringence (result in words)” value is given as “strong birefringence”.
